Literature values as cited in patent US20050137262A1, “Highly concentrated pourable aqueous solutions of potassium ibuprofen, their preparation and their uses” (priority 2003, published 2005).

CC(C)Cc1ccc(C(C)C(=O)[O-])cc1.[K+] (centres unmarked) [potassium ibuprofen, potassium 2-(4-isobutylphenyl)propionate]
concentration of dissolved potassium ibuprofen (U.S. Pat No. 5,912,011 Table 1, system with 35.2 wt % ibuprofen, 33.3 wt % PEG 600, 7.3 wt % water): 24.2 wt %
maximum concentration of dissolved potassium ibuprofen shown (U.S. Pat. No. 6,387,400, polyethylene glycol solvent, less than about 50 mole % of ibuprofen converted to potassium salt): about 24.2 wt %
